The nature of the data set: Human HepG2 cell viability assay in 384 well format. In kind it is toxicity, cell-based. Details: dose 125 nL, time 70.5 hour; concentration not given beside the values. Particulars: HepG2 cells, read-out: Inhibition.

`CSCCN1C(=O)CC(C)(c2ccc(Br)cc2)C1=O` (stereo not given): the cytotoxicity at 70.5 h was -5.43%.
In the case of `Cc1nnc(CSCc2ccc(OCC(F)(F)F)nc2)o1` it was -4.42%; in that of `Cc1ccc(OCC(O)COC2CCOCC2)c(Cl)c1` (stereo not given), -0.327%.
Regarding `CCc1nc(CN2CCCC2C(=O)NC)cs1` (stereo not given), the cytotoxicity at 70.5 h is -0.35%.
With `Cc1ccc(OCC(O)COC2CCOCC2)c(Br)c1` (stereo not given), the cytotoxicity at 70.5 h is -10.6%.
Under `Cc1noc(C(C)SCc2ccccn2)n1` (stereo not given) stands -8.37%; under `CSCCC(NC(=O)c1ccccc1)C(=O)N(C)Cc1ccsc1` (stereo not given), -7%.
Under `CC(NC(=O)C1CC1)C(=O)N(C)Cc1ccsc1` (stereo not given) stands -5.83%; under `Cc1n[nH]c(C)c1NC(=O)NCc1ccccn1`, -8.47%; under `CN(C)S(=O)(=O)NCC1CCN(Cc2ccccc2F)CC1`, -9.47%.
On to `COc1ccccc1CCN(C)Cc1nc(N)nc(N(C)C)n1`, for which the cytotoxicity at 70.5 h is -11.2%.
Under `Cn1cc(NC(=O)Cc2ccccc2Br)cc1C(N)=O` stands -2.69%; under `CCCc1nc(C)c(C(=O)NS(=O)(=O)c2ccc(C#N)cc2)s1`, -5.99%.
In the case of `CN(Cc1nnc(C2CC2)n1C)C(=O)c1ccnc(OC2CCC2)c1` it was -10.6%; in that of `Cn1cc(Br)c(=O)c(NS(=O)(=O)c2cc(F)ccc2Cl)c1`, 6.1%.
In the case of `Cc1cc(C)c2c(OCC(=O)NC(C)C)nn(C)c2n1` it was 14.7%; in that of `CCN(CC)C(=O)CCNC(=O)N1CCC(c2ccccc2)C1` (stereo not given), -6.27%; in that of `CCc1nc(CN(C)CC2CCN(CCO)CC2)no1`, -9.2%.
On to `Cc1cc(CN2CCN(C(=O)CCc3cccc(F)c3F)CC2)on1`, for which the cytotoxicity at 70.5 h was -6.52%.
In the case of `CN(CCOc1cccc(CN)c1)C1CCOCC1` it was -8.25%; in that of `O=C(CCc1ccsc1)NCC1CCN(c2ccccc2)C1` (stereo not given), 2.35%.
Under `CC(Cn1cccn1)NC(=O)Nc1ccc(F)cc1` (stereo not given) stands -4.1%; under `O=C1CN(Cc2nnc(-c3ccc(Br)o3)o2)CCN1`, -7.06%.
On to `CC(Cn1cccn1)NC(=O)Nc1ccc(N(C)C)nc1` (stereo not given), for which the cytotoxicity at 70.5 h was found to be 19.1%.
Take `Cc1cc(NC(=O)NCCc2cccs2)n(C)n1`: the cytotoxicity at 70.5 h is -1.92%.
Under `Cc1cnc(C(=O)N(CCN(C)C)Cc2ccc(Cl)cc2)cn1` stands -6.08%; under `CCC(C)NC(=O)Nc1ccc(CN2CCOC2=O)cc1` (stereo not given), 18.8%.
Under `O=C(NCCCO)Nc1cccc(Cl)c1F` stands -8.31%.
In the case of `CCOc1cc(C)nc(N2CCN(Cc3nccn3C)CC2)n1`, the cytotoxicity at 70.5 h was -0.961%.
Turning to `Cn1ccnc1-c1cccc(NC(=O)NCCN2CCOCC2)c1`, the cytotoxicity at 70.5 h is -3.53%.
In the case of `Cc1ccc(NC(=O)Cn2cc(I)cn2)cc1` it was 15.3%; in that of `CN(C)C(=O)CNC(=O)Nc1cccc(Cl)c1SC(F)F`, -4.52%.
Under `Cn1nc2c(cc1=O)CN(CC(=O)Nc1ccc(Cl)cn1)CC2` stands -3.49%; under `Cn1cc(-c2csc(N3CCOCC3)n2)cn1`, -3.47%; under `CS(=O)(=O)CCSc1cccc(C#N)c1`, -4.4%.
In the case of `Cn1cc(-c2csc(N3CCN(C(=O)OC(C)(C)C)CC3)n2)cn1` it was -2.04%; in that of `O=C(Nc1ccnc(OC2CCOC2)c1)C1CCC1` (stereo not given), -2.33%.
Regarding `CC(C)c1cnc(CNc2c(F)cccc2-n2cccn2)o1`, the cytotoxicity at 70.5 h was -4.44%.
Under `COCc1ccccc1NC(=O)[C@@H]1CCCN1C(=O)c1ccco1` stands -8.02%; under `Cc1n[nH]c(C2CN(CC(=O)NCCc3ccsc3)CCO2)n1` (stereo not given), -1.23%; under `O=C(c1ccc(Br)o1)N1CCN(Cc2ccc(OC(F)(F)F)cc2)CC1`, -2.19%.
Under `CC(C)COC(C)C(=O)N1CCN(S(C)(=O)=O)CC1` (stereo not given) stands -0.767%; under `CN(C)S(=O)(=O)N1CCN(c2nccc(C(F)(F)F)n2)CC1`, -0.547%; under `CCc1noc(C(C)N(C)CC(=O)Nc2c(C)cccc2C)n1` (stereo not given), -4.56%.
Under `COc1ccc(NC(=O)N2CCN(c3ncccn3)CC2)cn1` stands -5.14%; under `CCSc1cc(C(=O)NCCC(=O)Nc2ccccn2)ccn1`, -3.16%; under `Cc1ccc(C(=O)NC(C)CN2CCCC2=O)c(=O)[nH]1` (stereo not given), -5.25%.
Take `Cc1nn(C)c(N(C)C)c1CNCC(O)c1ccccc1` (stereo not given): the cytotoxicity at 70.5 h came to 0.0769%.
Under `CC(C#N)CSc1ccccc1NCC(=O)Nc1ccc(F)cc1` (stereo not given) stands 2.62%.
Under `COc1ccc(NC(C)C(=O)N2CCN(c3ncccn3)CC2)cn1` (stereo not given) stands 2.09%.
In the case of `NS(=O)(=O)N1CCc2ccc(NC(=O)Cc3ccc(F)cc3)cc21` it was 6.47%; in that of `COCC(NC(=O)c1cc[nH]n1)c1cccc(C(F)(F)F)c1` (stereo not given), -0.606%.
Regarding `Cc1ccc(S(=O)(=O)NC(=O)c2cccc3c2OCCO3)c(C)c1`, the cytotoxicity at 70.5 h was -3.86%.
On to `Cc1ccn(-c2ccccc2NCc2ncc[nH]2)n1`, for which the cytotoxicity at 70.5 h turned out to be 3.45%.
Under `CCSc1cc(C(=O)NCc2ccccc2O)ccn1` stands -4.36%; under `CC(c1cccnc1)N(C)Cc1csc(-c2ccccn2)n1` (stereo not given), 8.67%; under `CC(C)(C)C(=O)NCCC(=O)NC(C)(C)c1ccc2c(c1)OCCO2`, 1.98%.
In the case of `CC(OCC(F)(F)F)C(=O)N1CCCCC1` (stereo not given) it was 0.611%; in that of `CCc1noc(C(C)N(C)CC(=O)Nc2ccc(C)cc2)n1` (stereo not given), -4.51%.
Under `CCc1nc(CN2CCCC(N(C)Cc3cnc(C)s3)C2)no1` (stereo not given) stands -2%.
Turning to `Cc1ccn(-c2ccccc2NCc2cccnc2C)n1`, the cytotoxicity at 70.5 h is -7.82%.
Under `O=C(CCc1ccccn1)N1CCc2cc(Cl)cc(Cl)c2C1` stands 29.3%; under `CCc1nc(CN2CCCN(c3nc4ccccc4o3)CC2)no1`, 6.35%; under `O=C(c1cccc(NCCO)c1)N1CCOCC1`, 6.48%.
As to `Cc1cc(CNC2CCCN(c3cccnn3)C2)no1` (stereo not given), the cytotoxicity at 70.5 h came out at 5.47%.
In the case of `NC(=O)c1ccc(N2CCCCC2)c(NC(=O)c2cncc(Br)c2)c1` it was -7.05%.
Regarding `N#Cc1ccc(OCCOc2ccccc2C(=O)N2CCOCC2)cc1`, the cytotoxicity at 70.5 h was -9.24%.
Regarding `NC(=O)C1CCN(Cn2nc(-c3ccccc3)oc2=O)CC1`, the cytotoxicity at 70.5 h is -8.01%.
In the case of `CS(=O)(=O)NCC1CCCN(Cc2ccc(F)c3cccnc23)C1` (stereo not given) it was -12.2%; in that of `Cc1ccc(C(=O)NC2CCN(Cc3noc(CC(C)C)n3)CC2)s1`, 7.31%.
For the compound `Cc1ccc(-n2nnc(CC(=O)N3CCOCC3)c2C)cc1`, the cytotoxicity at 70.5 h was -10.7%.
In the case of `C[C@H]1C[C@@H]2CCN(Cc3ccco3)C[C@H]2O1` it was -7.2%; in that of `COCC(=O)N1C[C@H]2CN(Cc3cccc(F)c3)C(=O)[C@H]2C1`, 8.07%.
Under `O=C(NC1CC1)N1C[C@H]2CN(Cc3cccc(F)c3)C(=O)[C@H]2C1` stands -13.8%; under `Cc1ccc(C(=O)N2C[C@H]3CCC[C@@]3(COCC3CCOCC3)C2)o1`, -5.19%; under `CN1C(=O)CC(c2cnn(C)c2)C12CCN(C(=O)c1ccco1)CC2` (stereo not given), -6.73%.
Under `Cc1ccc(CN2CCN(C)c3ncccc3C2)o1` stands -6.49%.
For the compound `CN1C(=O)CC(c2cnn(C)c2)C12CCN(C(=O)c1cccn1C)CC2` (stereo not given), the cytotoxicity at 70.5 h was -13.1%.
Under `CS(=O)(=O)N[C@H]1CN(C(=O)c2cscn2)[C@@H]2CCCO[C@H]12` stands -8.41%; under `O=C(c1ccoc1)N1CC[C@@H]2O[C@@H](COCC3CCOCC3)CC[C@@H]21`, 16%.
In the case of `CNC1CCCN(Cc2noc(C3CC3)n2)C1` (stereo not given) it was -7.48%; in that of `CCC(=O)N1CCC2(CC1)COCCN2Cc1ccc(F)cc1`, -10.7%; in that of `CNC(=O)CN1CCOCC12CCN(C(=O)c1ccccc1)CC2`, -5.33%.
Under `CC(C)CC(=O)N1CCC2(CC1)COCCN2Cc1ccc(F)cc1` stands -11.1%.
With `Cn1cc(CN2CCC3(CCN(c4cnn(C)c4)C3=O)C2)cn1` (stereo not given), the cytotoxicity at 70.5 h is -10.8%.
Under `COc1ccc(CN2CCC3(CC2)CCN(c2cnn(C)c2)C3=O)cc1` stands -6.09%; under `CCN1CCOCC12CCN(C(=O)Cc1ccccc1)CC2`, -11.2%.
Turning to `O=C(C1CC1)N1CCC2(CC1)COCCN2Cc1ccc(F)cc1`, the cytotoxicity at 70.5 h worked out at 0.119%.
In the case of `CC(C)C(=O)N1CCC2(CC1)COCCN2Cc1ccc(F)cc1` it was -2.33%; in that of `CN(C)CCOC[C@H]1CC[C@H]2[C@H](CCN2C(=O)c2ccoc2)O1`, -12.4%; in that of `O=C1[C@H]2CN(Cc3nccs3)C[C@H]2CN1c1cncnc1`, -8.02%.
Under `COc1cc(N2CC[C@@H](O)[C@@H]2Cc2ccncc2)ncn1` stands -10%; under `Fc1cnc(N2CC3(CCN(Cc4ccsc4)C3)C2)nc1`, -6.5%; under `CS(=O)(=O)N[C@@H]1CN(C(=O)c2cccnc2)[C@@H]2CCCO[C@@H]21`, -5.12%.
In the case of `C[C@H]1C[C@H]2CN(Cc3ccccn3)CC[C@@H]2O1` it was -3.43%; in that of `Cc1ccc(N2CCO[C@H]3CN(Cc4nccs4)C[C@H]32)nn1`, -6.14%; in that of `COc1ccccc1CN1C[C@@H]2COC[C@]2(COCc2ccncc2)C1`, -10.2%.
Regarding `O=C1[C@H]2CN(Cc3ccccn3)C[C@H]2CN1c1ccsc1`, the cytotoxicity at 70.5 h was -6.18%.
In the case of `O=C1[C@H]2CN(Cc3ccncc3)C[C@H]2CN1c1ccsc1` it was -10.1%.
In the case of `Cc1ccc(N2CCO[C@H]3CN(Cc4cccnc4)C[C@H]32)nn1` it was 12.6%.

Source of the values: ChEMBL document CHEMBL3507680, “University of Dundee, Gates Library screen for HepG2 cell viability”.
